Laboratory results from PMC9549030, “Structural basis for specific inhibition of the deubiquitinase UCHL1” (Nature Communications, 2022).
Where a chain is given by its changes, count along the chain named. Several values for one entry are separate records, joined by “and”; a condition that tells them apart may be missing. Equal values may be shown once.

Tests used:
[1] = target: T1, UCHL3 L168F (Homo sapiens, UniProt P15374, L168F); test: Intact protein mass spectrometry; assay type: binding; settings: enzyme 3 µM; compound 10 µM; 1 h
T1 sequence (P15374 1-230 L168F): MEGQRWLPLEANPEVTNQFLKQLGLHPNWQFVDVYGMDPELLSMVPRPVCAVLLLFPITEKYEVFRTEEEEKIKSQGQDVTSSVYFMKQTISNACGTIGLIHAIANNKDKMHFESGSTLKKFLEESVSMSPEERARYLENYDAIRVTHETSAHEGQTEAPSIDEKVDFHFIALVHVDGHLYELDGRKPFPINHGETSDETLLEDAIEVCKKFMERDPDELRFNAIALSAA
Source text: (§1) Spectra were deconvoluted with ProMass (Enovatia).

[2] = target: T2, UCHL3 (Homo sapiens, UniProt P15374); test: Intact protein mass spectrometry; assay type: binding; settings: enzyme 3 µM; compound 10 µM; 1 h
T2 sequence (P15374 1-230): T1 sequence (P15374 1-230 L168F) with F168L
Source text: as §1

[3] = target: T3, UCHL1 (Homo sapiens, UniProt P09936); test: Intact protein mass spectrometry; assay type: binding; settings: compound 10 µM
T3 sequence (P09936 1-223): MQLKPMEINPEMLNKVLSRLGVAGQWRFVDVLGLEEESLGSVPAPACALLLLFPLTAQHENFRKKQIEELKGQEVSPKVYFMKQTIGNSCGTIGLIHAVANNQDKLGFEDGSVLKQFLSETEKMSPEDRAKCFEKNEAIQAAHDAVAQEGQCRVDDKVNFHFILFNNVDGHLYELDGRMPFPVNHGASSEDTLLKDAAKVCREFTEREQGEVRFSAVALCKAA
Source text: as §1

[4] = target: T4, UCHL3 A11I (Homo sapiens, UniProt P15374, A11I); test: Intact protein mass spectrometry; assay type: binding; settings: enzyme 3 µM; compound 10 µM; 1 h
T4 sequence (P15374 1-230 A11I): T1 sequence (P15374 1-230 L168F) with A11I, F168L
Source text: as §1

[5] = system: DUBs in HEK293 lysate; test: Activity-based protein profiling in the lysate with Ub-VS competition; assay type: binding, human; settings: 1 µM, 1 h
Procedure: Cells (4 × 10^6) were seeded in 10 cm dishes and grown to 90% confluency. The medium was aspirated, cells were washed with ice-cold PBS, treated with 600 µL ABP lysis buffer (1% (v/v) IGEPAL, 50 mM Tris, 150 mM NaCl, 5% glycerol, pH 8, cOmplete protease inhibitor cocktail), and incubated on ice for 15 min. The lysed cells were scrapped off the dish, cleared by centrifugation, and the protein concentration was determined via a Bradford assay. […] Each compound was diluted to a 2x concentration in PBS buffer from a 10 mM stock in DMSO (final concentration: 1 µM). Then each compound dilution or a DMSO dilution was mixed with cell lysate and incubated for one hour at room temperature. […] Samples were resolved by SDS-PAGE using a 4–12% Bis-Tris gel (Invitrogen, NuPAGE) with MES SDS running buffer for 50 min at 180 V. Fluorescence was read out using the Alexa564 (λex/em 520–545/577–613 nm, for TAMRA) and Alexa680 (λex/em 650–675/700–730 nm, for the PageRuler Prestained NIR Protein Ladder (Thermo Scientific)) channels on a ChemiDoc MP Imaging System (Bio-Rad).

[6] = target: T3, UCHL1; test: Jump-dilution assay; assay type: biochemical; settings: 625 nM GK13S 2 h, then diluted 100-fold
Procedure: Reactions were performed in similar 384 plates as above in a final volume of 20 µL. […] Parts of this solution were diluted at 1:50 at different time points with buffer H. All samples were then diluted 1:2 with 100 nM Ub-Rho (buffer H, final concentration in well 50 nM) and fluorescence was recorded as described above.

[7] = target: T5, UCHL3 A11I+L168F (Homo sapiens, UniProt P15374, A11I/L168F); test: Ub-Rhodamine (Ubiquitin rhodamine cleavage) assay; assay type: biochemical
T5 sequence (P15374 1-230 A11I/L168F): T1 sequence (P15374 1-230 L168F) with A11I

[8] = target: T3, UCHL1; test: kobs/[I] kinetic assay; assay type: biochemical; parameters: kobs: unit not given here; settings: Figure 3c right panel
Procedure: Reactions were performed in 384 well plates as above. Compound (5 µL of a 4x stock in reaction buffer H supplemented with 2.5 mM TCEP; varying final concentrations ranging from 78 nM to 200 µM) and Ub-Rhodamine 110 (5 µL of a 4x stock in buffer H supplemented with 2.5 mM TCEP; final concentration: 50 nM) were mixed in a 1:1 ratio.

[9] = target: T4, UCHL3 A11I; test: Ub-Rhodamine (Ubiquitin rhodamine cleavage) assay; assay type: biochemical
[10] = target: T3, UCHL1; test: Thermal shift assay; assay type: binding; settings: UCHL1 1 µM, 1 h, replicates
Procedure: Reactions were performed in white 96-well PCR plates (Bio-Rad). UCHL1 was diluted in thermal shift buffer (1x PBS, 5 mM DTT) to a 4x concentration of 4 µM. The protein was then mixed with 4x compound dissolved in thermal shift buffer in a 1:1 ratio. To each well was added 20 µL of DUB-Inhibitor solution, followed by 1 h incubation time. To each well was then added 20 µL 4x SYPRO Orange in thermal shift buffer. After sealing the plates with a transparent film, thermal denaturation (gradient: 20–90 °C; Increment: 0.3 °C, hold for 5 s before read) was performed and monitored by a Bio-Rad Connect cycler.

SMILES: C#CCCCNC(=O)c1ccc(-n2cnc(NC(=O)[C@H]3CCN(C#N)C3)c2)cc1 [GK13S]
- protein species observed after compound treatment [1]: free UCHL3 L168F
- protein species observed after compound treatment [2]: free UCHL3
- stoichiometry of covalent binding to UCHL1 ([3]; UCHL1 3 µM, 16 h): bound only once
- protein species observed after compound treatment ([3]; enzyme 3 µM, 1 h): UCHL1 + 1x GK13S
- protein species observed after compound treatment [4]: free UCHL3 A11I
- DUB engagement (Ub-VS competitive labeling) [5]: Ubiquitin-probe competitive band of approx. 30 kDa
- reversibility of inhibition after jump dilution [6]: inhibition was sustained
- IC50 [7]: 11 ± 2 µM
- kobs ([8]; c(GK13S) 0.078125): 0.000109
- kobs ([8]; c(GK13S) 0.15625): 0.000197
- kobs ([8]; c(GK13S) 0.3125): 0.000258
- kobs ([8]; c(GK13S) 0.625): 0.000456
- kobs ([8]; c(GK13S) 1.25): 0.000882
- kobs ([8]; c(GK13S) 2.5): 0.001558
- IC50 [9]: 32 ± 7 µM
- melting temperature (Tm) of UCHL1 ([10]; compound 1.25 µM): 59.1 and 58.5
- melting temperature (Tm) of UCHL1 ([10]; compound 2.5 µM): 58.8 and 59.1
- melting temperature (Tm) of UCHL1 ([10]; compound 5 µM): 59.1
